By EC50 is commonly meant the concentration that produces a half-maximal response.

The results in this text go back to US20140193802A1, “IDENTIFICATION OF AN ALTERED THERAPEUTIC SUSCEPTIBILITY TO ANTI-HCMV COMPOUNDS AND OF A RESISTANCE AGAINST ANTI-HCMV COMPOUNDS” (priority 2012, published 2014).

Common to all, as to format: cell-based, human cytomegalovirus (HCMV)
In test [1] the test system is HCMV AD169 mutant rAIC246-2 (UL56 R369S). Put plainly: CPE-RA, letermovir-selected mutant. The settings on record: for EC50: Human betaherpesvirus 5, AD169, rAIC246-2 (UL56 R369S), CPE reduction assay, mean ± SD. The method, then:
(§1) HCMV Cytopathic Effect Reduction Assay (CPE-RA)
(§2) CPE-RAs were performed basically as described elsewhere (HCMV replication assay). In brief, the addition of 2 μl test compound of 50, 5, 0.5, 0.05, 0.005, and 0.0005 mM DMSO stock solutions to 100 μl cell culture medium in duplicate was followed by serial 2-fold dilutions in 96-well microtiter plates. Each well was supplemented with 150 μl of either a suspension of 1×10^4 NHDF cells mixed with cell-free HCMV (multiplicity of infection (MOI), 0.03) or a suspension of 1×10^4 to 3×10^4 HCMV-infected and uninfected NHDF cells (MOI, 0.001 to 0.002). Non-infected and non-treated cells served as controls on each plate. Final compound concentrations ranged between 250 and 0.00005 μM. Plates were incubated for 6 to 7 days at 37° C. or until the virus control reached 100% CPE. A mixture containing 20% Giemsa stain (Merck) and 5% formalin solution (Merck) was added to the wells for fixation and staining. After extensive washing, plates were dried at 56° C. followed by visual evaluation using an overhead microscope (plaque magnifier; Tecnorama Zürich). Each assay was performed at least in triplicate, and standard deviations were calculated. The assay plate data were used to calculate the EC50 (CPE-RA), i.e., the concentration of drug that inhibits the CPE by 50% compared with an untreated virus-infected control.
(§3) Drug-resistant HCMV AD169 mutants were selected by the single-step selection method or by serial passage of the virus in the presence of increasing concentration of Letermovir. Briefly, 5×10^3 AD169-infected NHDF cells/well (MOI, 0.03 PFU/cell) were seeded into the wells of 30 96-well microtiter plates. The infection was allowed to proceed under the exposure of 50 nM Letermovir (˜10×EC50) until a CPE developed in one or more of the compound-treated wells (indicative of resistant virus breakthrough). Non-infected and non-treated cells served as controls on each plate. Mutant virus amplification was accomplished after cultures achieved maximum CPE by the passage of cell-free supernatant virus in the presence of 50 nM Letermovir. The resultant Letermovir-resistant progeny virus mutants were plaque purified three times by limiting dilutions in the presence of Letermovir. The stability of resistance was tested by serially passaging plaque-purified viruses without selective pressure (8 to 10 times). The resistant phenotype of the mutants was confirmed by CPE reduction assays.

In test [2] the test system is HCMV AD169 mutant rAIC246-3 (UL56 C325Y). Briefly: CPE-RA, letermovir-selected mutant. The settings on record: for EC50: Human betaherpesvirus 5, AD169, rAIC246-3 (UL56 C325Y), CPE reduction assay, mean ± SD. How it is done: as §1, §2, §3
Test [3] relates to HCMV AD169 mutant rAIC246-4 (UL56 V231L). Put plainly: CPE-RA, letermovir-selected mutant. The settings on record: for EC50: Human betaherpesvirus 5, AD169, rAIC246-4 (UL56 V231L), CPE reduction assay, mean ± SD. The method, then:
as §1, §2, §3

The next test deals with RV-HG (wt-HCMV). Put plainly: HCMV fluorescence reduction assay (GFP-RA). The note with it: Human betaherpesvirus 5. How it is done:
(§4) HCMV Fluorescence Reduction Assay (GFP-RA)
(§5) The susceptibilities of recombinant HCMV laboratory strains expressing GFP were determined by a GFP-based fluorescence reduction assay. For standard assays, 1.5×10^4 NHDF cells/well were cultured in black 96-well plates (Greiner Bio-One, Germany) and infected with either HCMV-GFP (MOI, 0.1) or RV-HG (MOI, 0.2 to 0.5). After virus adsorption, the virus inoculum was replaced with 200 μl fresh medium. Thereafter, 100 μl medium containing the test compounds was added to wells of horizontal row G, followed by serial 3-fold dilutions up to row A. All drug concentrations were tested at least in duplicate. Wells of the horizontal row H served as the virus control. Plates were incubated at 37° C. for 7 days. The medium was replaced by 200 μl PBS, and GFP units (GFPU) were determined by a charge-coupled-device-camera-based fluorescence detector (FluoBox; Bayer Technology Services GmbH, Leverkusen, Germany), which captures 96 images simultaneously. Drug effects were calculated as a percentage of reduction in GFPU in the presence of each drug concentration compared to the GFPU determined in the absence of drug. EC50 and EC90 values (drug concentrations producing 50% and 90% reduction in GFPU) were calculated using nonlinear regression curve fit with a variable slope. GraphPad Prism 3.02 or 4.0 software (GraphPad Software Inc., La Jolla, Calif.) was used for all analyses.
(§6) The HCMV AD169-derived bacterial artificial chromosome (BAC) pHG served as the backbone for the construction of the mutant viruses. The markerless introduction of point mutations into pHG was done using a two-step recombination protocol according to the en passant method. Briefly, a recombination fragment containing the I-SceI-AphAI cassette from plasmid pEPKan-S was obtained by PCR using primers containing ˜60 bp of homology to the intended integration site in ORF UL56 of BAC pHG and ˜20 bp specific for pEPKan-S. This fragment was electroporated into Escherichia coli GS1783 that harbored the pHG BAC. […] After successful kanamycin selection, all non-HCMV sequences were removed by an intrabacterial ISceI digest and a subsequent second Red recombination, resulting in the scarless repair of the mutated UL56 gene in the background of BAC pHG. The integrity of the generated BACs was confirmed by restriction enzyme digestion and sequencing. To reconstitute virus mutants, the recombinant BACs were transfected into permissive MRC5 cells. At least two independent virus clones per mutation were generated and evaluated.

Another test relates to RV-HG-UL56 mutants. Briefly: GFP-RA, drug susceptibility profile of the virus mutants. The note with it: fluorescence reduction assays; for BAY 38-4766 and BDCRB with the exception of the strain carrying UL56 R369M. How it is done:
as §4, §5
as §6, with “The integrity of the generated BACs was confirmed by restriction enzyme digestion and sequencing.” left out

Where two headings read alike, the source gives them in different places.

As to `Nc1nc(O)c2ncn(COC(CO)CO)c2n1` [Ganciclovir], the EC50 was 4 ± 0.9 µM in test [1], 2.4 ± 2.5 µM in test [2], 4.2 ± 1.3 µM in test [3] and 2.21 ± 0.99 µM in the test with RV-HG (wt-HCMV). Moreover, the “sensitivity of the RV-HG-UL56 mutants compared with the parental wild-type virus RV-HG” value in the test on RV-HG-UL56 mutants is recorded as “did not differ”.
For the compound `COc1cccc(N2CCN(C3=Nc4c(F)cccc4[C@H](CC(=O)O)N3c3cc(C(F)(F)F)ccc3OC)CC2)c1` [Letermovir, (S)-{8-fluoro-2-[4-(3-methoxyphenyl)-1-piperazinyl]-3-[2-methoxy-5-(trifluoromethyl)phenyl]-3,4-dihydro-4-quinazolinyl}acetic acid], the EC50 in test [1] is 0.37 ± 0.07 µM; in test [2], 27 ± 3.27 µM; in test [3], 0.13 ± 0.01 µM; in the test with RV-HG (wt-HCMV) (RV-HG (wt-HCMV), fluorescence reduction assay, mean ± SD, read-out: EC50), 0.003 ± 0.0012 µM. For the same compound, the “Resistance index (RI) = letermovir-EC50 mutant virus/letermovir-EC50 wild-type virus” value in test [1] (rAIC246-2 vs AD169) was found to be 66; in test [2] (rAIC246-3 vs AD169), 4801; in test [3] (rAIC246-4 vs AD169), 23. The “sensitivity of the RV-HG-UL56 mutants compared with the parental wild-type virus RV-HG” value in the test with RV-HG-UL56 mutants is reported as “resistant”.
